Results on 26 compounds are retold here after patent publication US10011597B2 (APOGLYX AB, priority 2014, dated 2018).

Molecules are shown by their SMILES.

The assay addresses T1, human aquaporin 9 (Homo sapiens, UniProt O43315).
T1 construct: expressed in transfected cells; host or cells: Human AQP9 cell line with tetracycline added to the medium
T1 sequence (O43315 1-295): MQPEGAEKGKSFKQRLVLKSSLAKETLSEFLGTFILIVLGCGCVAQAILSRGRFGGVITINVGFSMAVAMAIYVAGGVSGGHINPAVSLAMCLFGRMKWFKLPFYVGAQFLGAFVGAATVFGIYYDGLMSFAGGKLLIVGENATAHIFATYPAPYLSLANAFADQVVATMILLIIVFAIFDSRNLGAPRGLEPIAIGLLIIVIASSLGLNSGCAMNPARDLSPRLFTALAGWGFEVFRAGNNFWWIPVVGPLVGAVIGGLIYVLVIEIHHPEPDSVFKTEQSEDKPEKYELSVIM
The experiment in a line: Calcein quenching fluostar assay. Particulars: inhibition of human aquaporin 9; Human AQP9 cell line, tetracyclin-induced; 25° C. The class given is cell-based. The procedure:
Calcein Quenching Fluostar Assay
A calcein quenching fluostar assay was performed in order to investigate the biological activity of the newly synthesized examples 1 to 57. This type of assay is disclosed in J. Biol. Chem., 2011, 286, 44319-44325 and Am. J. Physiol. Renal Physiol. (2010), 298, F224-230.
1) Two days prior to commencement of the assay, seed 10,000 cells/well of 96 well black clear bottom plate (Greiner Poly-lysin plate). A 1:1 mix of Dulbecco's Modified Eagle's Medium:Nutrient Mixture F-12 (DMEM: F12) was obtained from Gibco. Tetracycline stock of 5 mg/ml in 96% ethanol is used. Medium:DMEM/F12/10% Donor Bovine Serum, Human AQP9 cell line+1:270,000 tetracyclin, mouse AQP9 cell line+1:2,700,000 tetracycline.
2) Day of assay: Flick/slam off the medium and add 50 μl/well of loading solution: 5 ml DMEM/F12/10% Donor Bovine Serum, 25 μl Calcein AM—from freshly dissolved aliquot in 50 μl DMSO (VWR #734-1434), and 100 μl Probenecid.
3) Incubate the well for 90 minutes at 37° C.
4) Perform one wash with 75 μl wash buffer.
5) Add 75 μl of an example compound prepared in wash buffer per well.
Example compounds are prepared in 500 μl U bottom PP plates (NUNC). […] Substance in DMSO are added to row A; 180 μl of wash buffer+1% DMSO are added to rows B-H. 90 μl from row A are transferred and mixed with all other wells (up to row G) to make a 3-fold dilution series.
6) Assay in FLUOstar Optima at 25° C. Settings buffer addition at 135 μl seconds, add 75 μl/well, record time course for 30 seconds, add sucrose buffer 3.6 seconds into recording.
7) Normalization to initial in Excel.
8) Fit to “exponential decay” function in GraphPad Prism 5.0, then arrange half live shrinking values according to wells and fit dose-response curves.
As a reminder, the IC50 is the midpoint of a concentration-inhibition curve. As for `CCn1c(SCC(=O)Nc2nnc(-c3ccc(F)cc3)s2)nnc1-c1ccccn1` [Example 29, 2-{[4-Ethyl-5-(pyridin-2-yl)-4H-1,2,4-triazol-3-yl]sulfanyl}-N-[5-(4-fluorophenyl)-1,3,4-thiadiazol-2-yl]acetamide], the IC50 was 427 nM.

On to `CCn1c(SCC(=O)Nc2nnc(-c3ccc(F)cc3)s2)nnc1-c1cccnc1` [Example 30, 2-{[4-Ethyl-5-(pyridin-3-yl)-4H-1,2,4-triazol-3-yl]sulfanyl}-N-[5-(4-fluorophenyl)-1,3,4-thiadiazol-2-yl]acetamide], for which the IC50 was 110 nM.

Take `CCn1c(SCC(=O)Nc2nnc(-c3ccc(F)cc3)s2)nnc1-c1ccncc1` [Example 31, 2-{[4-Ethyl-5-(pyridin-4-yl)-4H-1,2,4-triazol-3-yl]sulfanyl}-N-[5-(4-fluorophenyl)-1,3,4-thiadiazol-2-yl]acetamide]: the IC50 is 99 nM.

Take `CCCn1c(SCC(=O)Nc2nnc(-c3ccc(OC)cc3)s2)nnc1-c1ccc(F)cc1` [Example 32, 2-{[5-(4-Fluorophenyl)-4-propyl-4H-1,2,4-triazol-3-yl]sulfanyl}-N-[5-(4-methoxyphenyl)-1,3,4-thiadiazol-2-yl]acetamide]: the IC50 is 416 nM.

With `COc1ccc(-c2nnc(NC(=O)CSc3nnc(-c4ccc(F)cc4)n3C3CC3)s2)cc1` [Example 33, 2-{[4-Cyclopropyl-5-(4-fluorophenyl)-4H-1,2,4-triazol-3-yl]sulfanyl}-N-[5-(4-methoxyphenyl)-1,3,4-thiadiazol-2-yl]acetamide], the IC50 is 978 nM.

With `CCn1c(SCC(=O)Nc2nnc(-c3ccc(O)cc3)s2)nnc1-c1ccc(F)cc1` [Example 34, 2-{[4-Ethyl-5-(4-fluorophenyl)-4H-1,2,4-triazol-3-yl]sulfanyl}-N-[5(4-hydroxyphenyl)-1,3,4-thiadiazol-2-yl]acetamide], the IC50 was 61 nM.

Take `CCn1c(SC(C)C(=O)Nc2nnc(-c3ccc(OC)cc3)s2)nnc1-c1ccc(F)cc1` (centres unmarked) [Example 35, 2-{[4-Ethyl-5-(4-fluorophenyl)-4H-1,2,4-triazol-3-yl]sulfanyl}-N-[5(4-methoxyphenyl)-1,3,4-thiadiazol-2-yl]propanamide]: the IC50 was 301 nM.

For the compound `CCn1c(SCC(=O)Nc2nnc(-c3ccc(OS(C)(=O)=O)cc3)s2)nnc1-c1ccc(F)cc1` [Example 36, 4-[5-(2-{[4-Ethyl-5-(4-fluorophenyl)-4H-1,2,4-triazol-3-yl]sulfanyl}acetamido)-1,3,4-thiadiazol-2-yl]phenyl methanesulfonate], the IC50 was 129 nM.

On to `CCn1c(SCC(=O)Nc2nnc(-c3ccc(OCCOC)cc3)s2)nnc1-c1ccc(F)cc1` [Example 37, 2-{[4-ethyl-5-(4-fluorophenyl)-4H-1,2,4-triazol-3-yl]sulfanyl}-N-{5-[4-(2-methoxyethoxy)phenyl]-1,3,4-thiadiazol-2-yl}acetamide], for which the IC50 was 82 nM.

For the compound `CCn1c(SCC(=O)Nc2nnc(-c3ccccc3F)s2)nnc1-c1ccc(F)cc1` [Example 38, 2-{[4-ethyl-5-(4-fluorophenyl)-4H-1,2,4-triazol-3-yl]sulfanyl}-N-[5-(2-fluorophenyl)-1,3,4-thiadiazol-2-yl]acetamide], the IC50 is 190 nM.

Consider `CCn1c(SCC(=O)Nc2nnc(-c3ccc(OC)cc3)s2)nnc1-c1cccc(Cl)c1` [Example 39, 2-{[5-(3-chlorophenyl)-4-ethyl-4H-1,2,4-triazol-3-yl]sulfanyl}-N-[5-(4-methoxyphenyl)-1,3,4-thiadiazol-2-yl]acetamide], for which the IC50 was 113 nM.

Consider `CCn1c(SCC(=O)Nc2nnc(-c3ccc(OC)cc3)s2)nnc1-c1ccc(Cl)cc1` [Example 40, 2-{[5-(4-chlorophenyl)-4-ethyl-4H-1,2,4-triazol-3-yl]sulfanyl}-N-[5-(4-methoxyphenyl)-1,3,4-thiadiazol-2-yl]acetamide], for which the IC50 is 810 nM.

In the case of `CCn1c(SCC(=O)Nc2nnc(-c3ccc(OC)cc3)s2)nnc1-c1ccccn1` [Example 41, 2-{[4-ethyl-5-(pyridin-2-yl)-4H-1,2,4-triazol-3-yl]sulfanyl}-N-[5-(4-methoxyphenyl)-1,3,4-thiadiazol-2-yl]acetamide], the 50% inhibitory concentration (IC50) is 260 nM.

Take `CCn1c(SCC(=O)Nc2nnc(-c3ccc(F)cc3)s2)nnc1-c1ccc(Cl)cc1` [Example 43, 2-{[5-(4-chlorophenyl)-4-ethyl-4H-1,2,4-triazol-3-yl]sulfanyl}-N-[5-(4-fluorophenyl)-1,3,4-thiadiazol-2-yl]acetamide]: the IC50 is 92 nM.

Consider `O=C(CSc1nnc(-c2ccc(F)cc2)n1C1CC1)Nc1nnc(-c2ccc(F)cc2)s1` [Example 44, 2-{[4-cyclopropyl-5-(4-fluorophenyl)-4H-1,2,4-triazol-3-yl]sulfanyl}-N-[5-(4-fluorophenyl)-1,3,4-thiadiazol-2-yl]acetamide], for which the IC50 was 168 nM.

As for `CCn1c(SCC(=O)Nc2nnc(-c3ccc(OC)c(F)c3)s2)nnc1-c1ccc(F)cc1` [Example 45, 2-{[4-ethyl-5-(4-fluorophenyl)-4H-1,2,4-triazol-3-yl]sulfanyl}-N-[5-(3-fluoro-4-methoxyphenyl)-1,3,4-thiadiazol-2-yl]acetamide], the IC50 was 182 nM.

For the compound `CCn1c(SCC(=O)Nc2nnc(-c3ccc(F)c(F)c3)s2)nnc1-c1ccc(F)cc1` [Example 46, N-[5-(3,4-difluorophenyl)-1,3,4-thiadiazol-2-yl]-2-{[4-ethyl-5-(4-fluorophenyl)-4H-1,2,4-triazol-3-yl]sulfanyl}acetamide], the concentration for half-maximal inhibition (IC50) is 385 nM.

Take `CCn1c(SCC(=O)Nc2nnc(-c3ccc(C#N)cc3)s2)nnc1-c1ccc(F)cc1` [Example 47, N-[5-(4-cyanophenyl)-1,3,4-thiadiazol-2-yl]-2-{[4-ethyl-5-(4-fluorophenyl)-4H-1,2,4-triazol-3-yl]sulfanyl}acetamide]: the IC50 was 114 nM.

As to `COC(=O)CCn1c(SCC(=O)Nc2nnc(-c3ccc(OC)cc3)s2)nnc1-c1ccccc1` [Example 48, Methyl 3-{3-[({[5-(4-methoxyphenyl)-1,3,4-thiadiazol-2-yl]carbamoyl}methyl)sulfanyl]-5-phenyl-4H-1,2,4-triazol-4-yl}propanoate], the IC50 is 117 nM.

As to `COc1ccc(-c2nnc(NC(=O)CSc3nnc(-c4ccccc4)n3CCN)s2)cc1` [Example 49, 2-{[4-(2-aminoethyl)-5-phenyl-4H-1,2,4-triazol-3-yl]sulfanyl}-N-[5-(4-methoxyphenyl) 1,3,4 thiadiazol-2-yl]acetamide], the IC50 was 373 nM.

`COc1ccc(-c2nnc(NC(=O)CSc3nnc(-c4ccccc4)n3CC(N)=O)s2)cc1` [Example 50, 2-{[4-(carbamoylmethyl)-5-phenyl-4H-1,2,4-triazol-3-yl]sulfanyl}-N-[5-(4methoxyphenyl)-1,3,4-thiadiazol-2-yl]acetamide]: the IC50 was 200 nM.

For the compound `COc1ccc(-c2nnc(NC(=O)CSc3nnc(-c4ccccc4)n3CCCO)s2)cc1` [Example 51, 2-{[4-(3-hydroxypropyl)-5-phenyl-4H-1,2,4-triazol-3-yl]sulfanyl}-N-[5-(4-methoxyphenyl)-1,3,4-thiadiazol-2-yl]acetamide], the IC50 was 86 nM.

`COc1ccc(-c2nnc(NC(=O)CSc3nnc(-c4ccccc4)n3CCO)s2)cc1` [Example 52, 2-{[4-(3-hydroxyethyl)-5-phenyl-4H-1,2,4-triazol-3-yl]sulfanyl}-N-[5-(4-methoxyphenyl)-1,3,4-thiadiazol-2-yl]acetamide]: the 50% inhibitory concentration (IC50) was 59 nM.

On to `CCn1c(SCC(=O)Nc2nnc(-c3ccc(S(C)(=O)=O)cc3)s2)nnc1-c1ccc(F)cc1` [Example 53, 2-{[4-ethyl-5-(4-fluorophenyl)-4H-1,2,4-triazol-3-yl]sulfanyl}-N-[5-(4-methanesulfonylphenyl)-1,3,4-thiadiazol-2-yl]acetamide], for which the IC50 was 134 nM.

As to `CCn1c(SCC(=O)Nc2nnc(-c3ccc(CS(C)(=O)=O)cc3)s2)nnc1-c1ccc(F)cc1` [Example 54, 2-{[4-ethyl-5-(4-fluorophenyl)-4H-1,2,4-triazol-3-yl]sulfanyl}-N-{5-[4-(methanesulfonylmethyl)phenyl]-1,3,4-thiadiazol-2-yl}acetamide], the IC50 is 901 nM.

On to `CCn1c(SCC(=O)Nc2nnc(-c3ccc(SC)cc3)s2)nnc1-c1ccc(F)cc1` [Example 55, 2-{[4-ethyl-5-(4-fluorophenyl)-4H-1,2,4-triazol-3-yl]sulfanyl}-N-{5-[4-(methylsulfanyl)phenyl]-1,3,4-thiadiazol-2-yl}acetamid], for which the IC50 was 676 nM.
